Assay results from patent publication US20260176289A1, “SMALL MOLECULE INHIBITORS OF KRAS PROTEINS” (Merck Sharp & Dohme LLC, priority 2022, published 2026).
Where two headings read alike, the source gives them in different places.

Columns and labels:
KRAS-WT = KRAS-WT (Homo sapiens, UniProt P01116); test: SOS-catalyzed nucleotide exchange assay (Procedure A, TR-FRET), KRAS-WT; assay type: biochemical; details: nucleotide exchange, read-out: KRAS WT GNE IC50
In short: (§1)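 TR-FRET 520/495 nm ratio read after SOS-driven exchange of Bodipy-GDP for unlabeled GTP (3 mM) on biotinylated RAS bound to Tb-streptavidin. There was a 60 min compound preincubation, RT. Final RAS/SOS and reaction times: G12C 3 nM/40 nM; WT 1 nM/40 nM; NRAS 1.25 nM/40 nM, each 60 min. G12V was 1.25 nM/160 nM, 90 min.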

KRAS-G12D = KRAS-G12D (Homo sapiens, UniProt P01116, G12D); test: SOS-catalyzed nucleotide exchange assay (Procedure A, TR-FRET), KRAS-G12D; assay type: biochemical; details: nucleotide exchange, read-out: KRAS G12D GNE IC50
In short: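 Signal ratio (520/495 nm, excitation 340 nm) reports Bodipy-GDP retention on biotinylated RAS after SOS-catalyzed exchange with 3 mM GTP. SOS was 40 nM, except 160 nM for G12V. Room-temperature exchange lasted 60 min (90 min for G12V), following a 60 min compound preincubation.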

KRAS-G12V = KRAS-G12V (Homo sapiens, UniProt P01116, G12V); test: SOS-catalyzed nucleotide exchange assay (Procedure A, TR-FRET), KRAS-G12V; assay type: biochemical; details: nucleotide exchange, read-out: KRAS G12V GNE IC50
In short: as §1

AsPC-1 cells = test: Cellular phospho-ERK assay, AsPC-1 cells (homozygous KRAS-G12D); assay type: cell-based; details: Homo sapiens, ASPC1, 2 h, read-out: AsPC1 pERK IC50
In short: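 Readout: p-ERK/total ERK ratio measured by Alpha SureFire Ultra multiplex in lysates after 2 h compound exposure (37 °C, 5% CO2). Dosing ran 10 points, 1:3 dilutions, highest final concentration 30 μM. IC50 values derived by four-parameter logistic regression.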

Sequence of KRAS-G12D (P01116 with tags, fused parts or gaps isoform P01116-2 G12D): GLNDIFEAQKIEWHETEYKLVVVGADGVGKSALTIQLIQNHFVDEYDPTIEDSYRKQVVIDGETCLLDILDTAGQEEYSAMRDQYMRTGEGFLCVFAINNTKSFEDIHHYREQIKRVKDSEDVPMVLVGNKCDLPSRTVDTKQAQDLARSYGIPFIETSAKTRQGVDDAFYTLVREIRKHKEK
Sequence of KRAS-WT (P01116 with tags, fused parts or gaps isoform P01116-2): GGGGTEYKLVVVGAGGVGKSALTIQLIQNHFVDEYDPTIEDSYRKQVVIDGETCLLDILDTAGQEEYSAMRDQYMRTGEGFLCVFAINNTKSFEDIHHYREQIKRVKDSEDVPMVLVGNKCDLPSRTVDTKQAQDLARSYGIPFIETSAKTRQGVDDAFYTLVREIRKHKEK
Sequence of KRAS-G12V (P01116 with tags, fused parts or gaps isoform P01116-2 G12V): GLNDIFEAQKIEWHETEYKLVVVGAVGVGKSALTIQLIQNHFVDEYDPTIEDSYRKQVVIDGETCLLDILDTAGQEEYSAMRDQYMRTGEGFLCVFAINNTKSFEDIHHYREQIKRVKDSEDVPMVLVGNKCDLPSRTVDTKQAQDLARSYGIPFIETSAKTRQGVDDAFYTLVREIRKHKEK

IC50 (KRAS-WT) [nM]	IC50 (KRAS-G12D) [nM]	IC50 (KRAS-G12V) [nM]	IC50 (AsPC-1 cells; 2 hours compound incubation) [nM]	IC50 (AsPC-1 cells; KRAS-G12D, 2 hours) [nM]	Structure (SMILES)
36.2	8.56	18.6	152	–	C[C@@]1(O)COCCN(c2nc(OC[C@]3(CN4CC5(CC5)C4)CC3(F)F)nc3sc4c(-c5c(C6(F)CC6)c(Cl)cc6[nH]ncc56)nccc4c23)C1 [Ex-250, (6S)-4-(2-(((R)-1-((5-azaspiro[2.3]hexan-5-yl)methyl)-2,2-difluorocyclopropyl)methoxy)-8-(6-chloro-5-(1-fluorocyclopropyl)-1H-indazol-4-yl)pyrido[4′,3′:4,5]thieno[2,3-d]pyrimidin-4-yl)-6-methyl-1,4-oxazepan-6-ol]
52	205	50.3	–	1110	F[C@H]1CN2CCC[C@@]2(COc2nc(N3CCCOCC3)c3c(n2)sc2c(-c4c(C5CC5)c(Cl)cc5[nH]ncc45)nncc23)C1 [Ex-286]
121	16.2	34.8	242	–	C[C@@]1(O)COCCN(c2nc(OC[C@]3(CN4C[C@@H]5C[C@H]4CO5)CC3(F)F)nc3sc4c(-c5c(C6(F)CC6)c(Cl)cc6[nH]ncc56)nccc4c23)C1 [Ex-236, (6S)-4-(2-(((R)-1-(((15,4S)-2-oxa-5-azabicyclo[2.2.1]heptan-5-yl)methyl)-2,2-difluorocyclopropyl)methoxy)-8-(6-chloro-5-(1-fluorocyclopropyl)-1H-indazol-4-yl)pyrido[4′,3′:4,5]thieno[2,3-d]pyrimidin-4-yl)-6-methyl-1,4-oxazepan-6-ol]
158	24.9	32.9	293	–	C[C@@]1(O)COCCN(c2nc(OC[C@]3(CN4CC5CC5C4)CC3(F)F)nc3sc4c(-c5c(C6(F)CC6)c(Cl)cc6[nH]ncc56)nccc4c23)C1 (stereo partly drawn) [Ex-237, (6S)-4-(2-(((1R)-1-((3-azabicyclo[3.1.0]hexan-3-yl)methyl)-2,2-difluorocyclopropyl)methoxy)-8-(6-chloro-5-(1-fluorocyclopropyl)-1H-indazol-4-yl)pyrido[4′,3′:4,5]thieno[2,3-d]pyrimidin-4-yl)-6-methyl-1,4-oxazepan-6-ol]
389	27.4	107	1520	–	CC1(C)C2CN(C[C@@]3(COc4nc(N5CCOC[C@@](C)(O)C5)c5c(n4)sc4c(-c6c(C7(F)CC7)c(Cl)cc7[nH]ncc67)nccc45)CC3(F)F)CC21 (stereo partly drawn) [Ex-234, (6S)-4-(8-(6-chloro-5-(1-fluorocyclopropyl)-1H-indazol-4-yl)-2-(((1R)-1-((6,6-dimethyl-3-azabicyclo[3.1.0]hexan-3-yl)methyl)-2,2-difluorocyclopropyl)methoxy)pyrido[4′,3′:4,5]thieno[2,3-d]pyrimidin-4-yl)-6-methyl-1,4-oxazepan-6-ol]
986	87.3	333	943	–	C[C@@H]1CN(C[C@@]2(COc3nc(N4CCOC[C@@](C)(O)C4)c4c(n3)sc3c(-c5c(C6(F)CC6)c(Cl)cc6[nH]ncc56)nccc34)CC2(F)F)CCO1 [Ex-243]
27.9	8.78	30.9	–	142	CN(C)C1CC(F)(F)C2C[C@]12COc1nc(N2CCOC[C@@](C)(O)C2)c2c(n1)sc1c(-c3c(C4(F)CC4)c(Cl)cc4[nH]ncc34)nccc12 (stereo partly drawn) [Ex-270, (6S)-4-(8-(6-chloro-5-(1-fluorocyclopropyl)-1H-indazol-4-yl)-2-((2-(dimethylamino)-4,4-difluorobicy-clo[3.1.0]hexan-1-yl)methoxy)pyri-do[4′,3′:4,5]thi-eno[2,3-d]pyrimidin-4-yl)-6-methyl-1,4-oxazepan-6-ol]
42.5	4.42	28.7	144	–	C[C@@]1(O)COCCN(c2nc(OC[C@]3(CN4C[C@H]5C[C@@H]4CO5)CC3(F)F)nc3sc4c(-c5c(C6(F)CC6)c(Cl)cc6[nH]ncc56)nccc4c23)C1 [Ex-257, (6S)-4-(2-(((R)-1-(((1R,4R)-2-oxa-5-azabicyclo[2.2.1]heptan-5-yl)methyl)-2,2-difluorocyclopropyl)methoxy)-8-(6-chloro-5-(1-fluorocyclopropyl)-1H-indazol-4-yl)pyrido[4′,3′:4,5]thieno[2,3-d]pyrimidin-4-yl)-6-methyl-1,4-oxazepan-6-ol]

The remaining lines, values behind:

Structure (SMILES)	IC50 (KRAS-WT) [nM]	IC50 (KRAS-G12D) [nM]	IC50 (KRAS-G12V) [nM]	IC50 (AsPC-1 cells; 2 hours compound incubation) [nM]	IC50 (AsPC-1 cells; KRAS-G12D, 2 hours) [nM]
CO[C@@H]1C[C@@H](COc2nc(N3CCOC[C@@](C)(O)C3)c3c(n2)sc2c(-c4c(C5CC5)c(C(F)(F)F)cc5[nH]ncc45)nccc23)N(C)C1 [Ex-85, (6S)-4-(8-(5-cyclopropyl-6-(trifluoromethyl)-1H-indazol-4-yl)-2-(((2S,4R)-4-methoxy-1-methylpyrrolidin-2-yl)methoxy)pyrido[4′,3′:4,5]thi-eno[2,3-d]pyrimidin-4-yl)-6-methyl-1,4-oxazepan-6-ol]	81.1	38.8	44.3	–	764
Cc1cc2[nH]ncc2c(-c2nccc3c2sc2nc(OC[C@@]45CCCN4C[C@H](F)C5)nc(N4CCC[C@@]5(CNC(=O)O5)C4)c23)c1C(F)(F)F [Ex-196, (5R)-7-(2-(((2R,7aS)-2-fluorotetrahydro-1H-pyr-rolizin-7a(5)-yl)methoxy)-8-(6-methyl-5-(trifluoro-methyl)-1H-indazol-4-yl)-pyrido[4′,3′:4,5]thieno[2,3-d]pyrimidin-4-yl)-1-oxa-3,7-diazaspiro[4.5]decan-2-one]	35.8	8.06	19.4	1870	–
CNc1cc2c(sc3nc(OC[C@@]45CCCN4C[C@H](F)C5)nc(N4CCOC[C@@](C)(O)C4)c32)c(-c2c(C(F)(F)F)c(C)cc3[nH]ncc23)n1 [Ex-30, (6S)-4-(2-(((2R,7aS)-2-fluorotetrahydro-1H-pyrrolizin-7a(5H)-yl)methoxy)-8-(6-methyl-5-(trifluoromethyl)-1H-indazol-4-yl)-6-(methylamino)pyrido[4′,3′:4,5]thieno[2,3-d]pyrimidin-4-yl)-6-methyl-1,4-oxazepan-6-ol]	436	158	196	–	730
Cc1cc2[nH]ncc2c(-c2nccc3c2sc2nc(OC[C@@]45CCCN4C[C@H](F)C5)nc(N4CCOC[C@@](C)(O)C4)c23)c1C(C)(F)F [Ex-41, (6S)-4-(8-(5-(1,1-difluoroethyl)-6-methyl-1H-indazol-4-yl)-2-(((2R,7aS)-2-fluorotetrahydro-1H-pyrrolizin-7a(5H)-yl)methoxy)pyrido[4′,3′:4,5]thi-eno[2,3-d]pyrimidin-4-yl)-6-methyl-1,4-oxazepan-6-ol]	260	121	166	–	635
COc1cc2c(sc3nc(OC[C@@]45CCCN4C[C@H](F)C5)nc(N4CCOC[C@@](C)(O)C4)c32)c(-c2c(C(F)(F)F)c(C)cc3[nH]ncc23)n1 [Ex-27, (6S)-4-(2-(((2R,7aS)-2-fluorotetrahydro-1H-pyrrolizin-7a(5H)-yl)methoxy)-6-methoxy-8-(6-methyl-5-(trifluoromethyl)-1H-indazol-4-yl)pyrido[4′,3′:4,5]thieno[2,3-d]pyrimidin-4-yl)-6-methyl-1,4-oxazepan-6-ol]	793	196	221	–	660
C[C@@]1(O)COCCN(c2nc(OC[C@@]34CCCN3C[C@H](F)C4)nc3sc4c(-c5c(C(F)F)c(C(F)(F)F)cc6[nH]ncc56)nccc4c23)C1 [Ex-61, (6S)-4-(8-(5-(difluoromethyl)-6-(trifluoromethyl)-1H-indazol-4-yl)-2-(((2R,7aS)-2-fluorotetrahydro-1H-pyrrolizin-7a(5H)-yl)methoxy)pyrido[4′,3′:4,5]thi-eno[2,3-d]pyrimidin-4-yl)-6-methyl-1,4-oxazepan-6-ol]	231	127	236	–	1280
CC1CCc2cccc(-c3nccc4c3sc3nc(OC[C@@]56CCCN5C[C@H](F)C6)nc(N5CCOC[C@@](C)(O)C5)c34)c21 (single isomer, unassigned) [Ex-117]	218	73.6	96.1	–	720
Cc1cc2[nH]ncc2c(-c2nccc3c2sc2nc(O[C@@H](C)[C@@H]4CCCN4C)nc(N4CCOC[C@@](C)(O)C4)c23)c1C(F)(F)F [Ex-204, (6S)-6-methyl-4-(8-(6-methyl-5-(trifluoromethyl)-1H-indazol-4-yl)-2-((S)-1-((S)-1-methylpyrrolidin-2-yl)ethoxy)pyrido[4′,3′:4,5]thieno[2,3-d]pyrimidin-4-yl)-1,4-oxazepan-6-ol]	936	339	239	2310	–
C[C@@]1(O)COCCN(c2nc(OC[C@@]34CCCN3C[C@H](F)C4)nc3sc4c(-c5c(C67CC(C6)C7)ccc6[nH]ncc56)nccc4c23)C1 [Ex-42, (6S)-4-(8-(5-(bicyclo[1.1.1]pentan-1-yl)-1H-indazol-4-yl)-2-(((2R,7aS)-2-fluorotetrahydro-1H-pyrrolizin-7a(5H)-yl)methoxy)pyrido[4′,3′:4,5]thi-eno[2,3-d]pyrimidin-4-yl)-6-methyl-1,4-oxazepan-6-ol]	286	135	144	–	1380
